In article PMC8500670, “A selective WDR5 degrader inhibits acute myeloid leukemia in patient-derived mouse models” (Science translational medicine, 2021) one finds inhibition and remaining activity data, which are given here for 1 compound.

What all share (assay): biochemical
In assay [1] the target is T1, 5-HT1A (Homo sapiens, UniProt P08908).
T1 construct: gene HTR1A
Set-up: GPCR, ion channel and transporter panel, per cent inhibition of binding, mean of four. The protocol:
(§1) We next assessed selectivity of MS67 against 22 protein methyltransferases (table S2) and a broad panel of common drug targets including 45 kinases (table S3) and 44 G protein–coupled receptors (GPCR), ion channels, and transporters (table S4). […] We subsequently determined that MS67 had moderate binding affinity (Ki = 1.0 ± 0.8 μM) to Sigma 2 receptor (fig. S10).

Assay [2] concerns the target T2, 5-HT2C (Homo sapiens, UniProt P28335).
T2 construct: gene HTR2C
More on the design: GPCR, ion channel and transporter panel, per cent inhibition of binding, mean of four. As for the experimental part: as §1

The target in assay [3] is T3, 5-HT5A (Homo sapiens, UniProt P47898).
T3 construct: gene HTR5A
T3 sequence (P47898 whole entry): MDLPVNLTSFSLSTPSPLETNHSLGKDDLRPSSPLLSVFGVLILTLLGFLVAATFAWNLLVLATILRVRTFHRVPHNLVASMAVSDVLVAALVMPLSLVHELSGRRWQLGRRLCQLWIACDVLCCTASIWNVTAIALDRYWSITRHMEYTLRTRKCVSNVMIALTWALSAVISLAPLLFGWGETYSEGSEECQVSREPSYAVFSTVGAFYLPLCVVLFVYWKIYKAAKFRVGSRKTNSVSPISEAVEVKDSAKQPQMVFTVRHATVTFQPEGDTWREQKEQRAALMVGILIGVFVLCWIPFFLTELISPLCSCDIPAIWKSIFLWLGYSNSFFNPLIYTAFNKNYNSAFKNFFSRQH
More on the design: GPCR, ion channel and transporter panel, per cent inhibition of binding, mean of four. As for the experimental part:
as §1

In assay [4] the target is T4, Alpha1A (Homo sapiens, UniProt P35348).
T4 construct: gene ADRA1A
T4 sequence (P35348 whole entry): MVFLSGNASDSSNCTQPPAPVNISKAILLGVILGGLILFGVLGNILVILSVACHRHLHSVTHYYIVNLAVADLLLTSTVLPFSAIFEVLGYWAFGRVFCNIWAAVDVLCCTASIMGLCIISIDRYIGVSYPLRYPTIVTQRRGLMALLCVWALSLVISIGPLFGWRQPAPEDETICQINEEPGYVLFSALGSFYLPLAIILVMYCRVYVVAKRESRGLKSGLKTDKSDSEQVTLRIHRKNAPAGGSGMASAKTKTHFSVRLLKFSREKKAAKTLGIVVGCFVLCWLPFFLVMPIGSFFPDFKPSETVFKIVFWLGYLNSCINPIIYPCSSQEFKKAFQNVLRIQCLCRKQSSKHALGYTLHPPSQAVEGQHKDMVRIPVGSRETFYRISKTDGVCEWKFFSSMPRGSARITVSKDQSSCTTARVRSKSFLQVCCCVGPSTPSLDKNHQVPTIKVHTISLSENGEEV
More on the design: GPCR, ion channel and transporter panel, per cent inhibition of binding, mean of four. The protocol:
as §1

Assay [5] addresses T5, Alpha1B (Homo sapiens, UniProt P35368).
T5 construct: gene ADRA1B
More on the design: GPCR, ion channel and transporter panel, per cent inhibition of binding, mean of four. As for the experimental part: as §1

The target in assay [6] is T6, Alpha2C (Homo sapiens, UniProt P18825).
T6 construct: gene ADRA2C
Set-up: GPCR, ion channel and transporter panel, per cent inhibition of binding, mean of four. The protocol: as §1

Assay [7] deals with T7, Beta2 (Homo sapiens, UniProt P07550).
T7 construct: gene ADRB2
T7 sequence (P07550 whole entry): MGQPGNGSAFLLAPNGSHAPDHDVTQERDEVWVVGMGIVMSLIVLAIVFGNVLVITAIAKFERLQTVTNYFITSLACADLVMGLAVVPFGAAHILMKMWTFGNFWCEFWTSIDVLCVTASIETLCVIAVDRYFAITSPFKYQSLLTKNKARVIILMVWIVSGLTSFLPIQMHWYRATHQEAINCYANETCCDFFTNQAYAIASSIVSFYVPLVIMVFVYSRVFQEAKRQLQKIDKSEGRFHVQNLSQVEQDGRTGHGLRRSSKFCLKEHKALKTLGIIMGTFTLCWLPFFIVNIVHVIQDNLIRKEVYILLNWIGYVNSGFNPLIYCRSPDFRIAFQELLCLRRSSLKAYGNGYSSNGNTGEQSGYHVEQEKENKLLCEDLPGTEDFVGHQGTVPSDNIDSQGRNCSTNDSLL
Set-up: GPCR, ion channel and transporter panel, per cent inhibition of binding, mean of four. The protocol:
as §1

The target of assay [8] is T8, D3 (Homo sapiens, UniProt P35462).
T8 construct: gene DRD3
T8 sequence (P35462 whole entry): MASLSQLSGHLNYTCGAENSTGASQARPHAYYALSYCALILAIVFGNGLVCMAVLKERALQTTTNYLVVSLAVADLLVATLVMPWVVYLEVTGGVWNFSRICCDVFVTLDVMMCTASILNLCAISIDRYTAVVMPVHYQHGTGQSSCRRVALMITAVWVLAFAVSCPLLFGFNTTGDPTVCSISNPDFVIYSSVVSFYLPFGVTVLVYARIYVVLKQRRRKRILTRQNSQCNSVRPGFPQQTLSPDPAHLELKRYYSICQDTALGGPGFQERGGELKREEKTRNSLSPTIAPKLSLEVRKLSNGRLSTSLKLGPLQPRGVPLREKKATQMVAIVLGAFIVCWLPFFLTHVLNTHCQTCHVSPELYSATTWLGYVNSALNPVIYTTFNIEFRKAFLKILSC
Set-up: GPCR, ion channel and transporter panel, per cent inhibition of binding, mean of four. The protocol:
as §1

Assay [9] concerns the target T9, DAT (Homo sapiens, UniProt Q01959).
T9 construct: gene SLC6A3
Set-up: GPCR, ion channel and transporter panel, per cent inhibition of binding, mean of four. As for the experimental part: as §1

The target in assay [10] is T10, H2 (Homo sapiens, UniProt P25021).
T10 construct: gene HRH2
T10 sequence (P25021 whole entry): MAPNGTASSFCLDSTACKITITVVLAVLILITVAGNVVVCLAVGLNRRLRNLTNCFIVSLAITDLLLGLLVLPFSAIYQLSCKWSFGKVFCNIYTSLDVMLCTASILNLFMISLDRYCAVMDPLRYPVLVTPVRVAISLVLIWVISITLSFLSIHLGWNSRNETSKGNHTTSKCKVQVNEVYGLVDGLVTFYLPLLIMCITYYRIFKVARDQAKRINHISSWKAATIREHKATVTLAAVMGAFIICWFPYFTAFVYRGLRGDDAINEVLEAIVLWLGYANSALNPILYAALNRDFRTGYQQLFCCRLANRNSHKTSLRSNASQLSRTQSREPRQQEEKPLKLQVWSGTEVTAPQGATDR
Set-up: GPCR, ion channel and transporter panel, per cent inhibition of binding, mean of four. The protocol: as §1

Assay [11] addresses T11, M5 (Homo sapiens, UniProt P08912).
T11 construct: gene CHRM5
Set-up: GPCR, ion channel and transporter panel, per cent inhibition of binding, mean of four. The protocol: as §1

Assay [12] has as its target T12, SERT (Homo sapiens, UniProt P31645).
T12 construct: gene SLC6A4
Set-up: GPCR, ion channel and transporter panel, per cent inhibition of binding, mean of four. As for the experimental part:
as §1

Assay [13] addresses T13, Sigma 1 (Homo sapiens, UniProt Q99720).
T13 construct: gene SIGMAR1
More on the design: GPCR, ion channel and transporter panel, per cent inhibition of binding, mean of four. As for the experimental part: as §1

The target in assay [14] is T14, GLP (Homo sapiens, UniProt Q9H9B1).
T14 construct: gene EHMT1
T14 sequence (Q9H9B1 1-1298): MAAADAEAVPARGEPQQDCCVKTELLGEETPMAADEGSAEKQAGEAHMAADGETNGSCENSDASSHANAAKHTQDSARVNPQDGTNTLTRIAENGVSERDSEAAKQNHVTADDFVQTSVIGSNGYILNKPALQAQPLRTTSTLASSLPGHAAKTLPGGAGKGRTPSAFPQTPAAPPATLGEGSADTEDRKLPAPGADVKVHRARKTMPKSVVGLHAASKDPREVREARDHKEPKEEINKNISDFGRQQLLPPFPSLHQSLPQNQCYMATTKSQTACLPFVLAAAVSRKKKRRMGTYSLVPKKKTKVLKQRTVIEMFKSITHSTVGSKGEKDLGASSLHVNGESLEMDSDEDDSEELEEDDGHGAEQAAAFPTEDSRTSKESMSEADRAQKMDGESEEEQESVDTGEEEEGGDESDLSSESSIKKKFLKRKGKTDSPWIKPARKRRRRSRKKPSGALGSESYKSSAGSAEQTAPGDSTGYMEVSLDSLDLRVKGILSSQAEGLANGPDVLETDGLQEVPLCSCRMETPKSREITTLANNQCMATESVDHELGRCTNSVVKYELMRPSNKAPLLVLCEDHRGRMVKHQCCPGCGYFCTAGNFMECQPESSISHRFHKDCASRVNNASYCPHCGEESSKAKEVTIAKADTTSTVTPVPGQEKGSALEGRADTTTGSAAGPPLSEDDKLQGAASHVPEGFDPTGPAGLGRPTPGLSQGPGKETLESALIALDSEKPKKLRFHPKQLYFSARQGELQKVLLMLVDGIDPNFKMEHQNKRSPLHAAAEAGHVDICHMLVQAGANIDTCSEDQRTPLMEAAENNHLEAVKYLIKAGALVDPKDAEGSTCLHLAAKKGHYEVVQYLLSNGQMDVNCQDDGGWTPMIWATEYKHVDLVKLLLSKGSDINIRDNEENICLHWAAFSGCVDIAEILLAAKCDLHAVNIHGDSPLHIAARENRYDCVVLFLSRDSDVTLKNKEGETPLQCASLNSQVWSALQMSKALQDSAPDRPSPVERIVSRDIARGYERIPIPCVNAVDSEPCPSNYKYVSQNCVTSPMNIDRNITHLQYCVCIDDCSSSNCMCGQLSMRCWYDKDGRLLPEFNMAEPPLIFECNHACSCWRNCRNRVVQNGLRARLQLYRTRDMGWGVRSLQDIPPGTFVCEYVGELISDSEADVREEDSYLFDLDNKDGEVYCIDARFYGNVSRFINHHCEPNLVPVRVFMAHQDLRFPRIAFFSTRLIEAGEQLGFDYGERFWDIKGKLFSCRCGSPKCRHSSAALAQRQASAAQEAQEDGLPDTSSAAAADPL
Set-up: protein methyltransferase selectivity panel, enzyme activity relative to DMSO controls, single concentration in duplicate. To be noted: Substrate:=Histone H3 1-21. As for the experimental part: as §1

Like-named read-outs stand apart in the source and are kept apart here.

T2 sequence (P28335 whole entry): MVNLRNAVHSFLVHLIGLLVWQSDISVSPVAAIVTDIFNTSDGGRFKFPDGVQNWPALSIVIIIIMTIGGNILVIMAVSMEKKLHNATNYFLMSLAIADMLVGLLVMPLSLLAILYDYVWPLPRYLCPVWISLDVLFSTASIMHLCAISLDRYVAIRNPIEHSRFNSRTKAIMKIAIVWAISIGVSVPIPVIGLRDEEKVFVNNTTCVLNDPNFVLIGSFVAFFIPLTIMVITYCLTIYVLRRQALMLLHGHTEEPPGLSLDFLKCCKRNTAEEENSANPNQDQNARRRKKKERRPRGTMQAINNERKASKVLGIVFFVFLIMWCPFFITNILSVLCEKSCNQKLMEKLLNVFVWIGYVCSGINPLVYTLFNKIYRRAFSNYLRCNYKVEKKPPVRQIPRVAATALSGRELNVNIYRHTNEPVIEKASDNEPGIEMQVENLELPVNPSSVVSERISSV
T1 sequence (P08908 whole entry): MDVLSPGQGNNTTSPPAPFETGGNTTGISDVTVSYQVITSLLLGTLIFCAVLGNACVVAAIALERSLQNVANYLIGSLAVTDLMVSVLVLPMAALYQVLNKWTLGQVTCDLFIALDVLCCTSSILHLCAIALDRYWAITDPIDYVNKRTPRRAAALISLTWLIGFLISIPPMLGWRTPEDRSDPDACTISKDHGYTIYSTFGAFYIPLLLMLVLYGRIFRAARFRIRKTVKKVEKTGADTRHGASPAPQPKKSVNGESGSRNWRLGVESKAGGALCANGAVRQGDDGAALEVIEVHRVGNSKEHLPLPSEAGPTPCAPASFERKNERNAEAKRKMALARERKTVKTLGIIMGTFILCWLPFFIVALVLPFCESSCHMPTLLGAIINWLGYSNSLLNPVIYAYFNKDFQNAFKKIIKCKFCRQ
T13 sequence (Q99720 whole entry): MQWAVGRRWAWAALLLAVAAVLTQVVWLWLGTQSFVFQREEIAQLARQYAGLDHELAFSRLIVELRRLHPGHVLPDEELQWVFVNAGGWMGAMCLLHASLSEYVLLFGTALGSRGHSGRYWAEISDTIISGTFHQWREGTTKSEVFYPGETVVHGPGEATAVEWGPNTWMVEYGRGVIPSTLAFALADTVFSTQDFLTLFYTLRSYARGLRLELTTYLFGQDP
T11 sequence (P08912 whole entry): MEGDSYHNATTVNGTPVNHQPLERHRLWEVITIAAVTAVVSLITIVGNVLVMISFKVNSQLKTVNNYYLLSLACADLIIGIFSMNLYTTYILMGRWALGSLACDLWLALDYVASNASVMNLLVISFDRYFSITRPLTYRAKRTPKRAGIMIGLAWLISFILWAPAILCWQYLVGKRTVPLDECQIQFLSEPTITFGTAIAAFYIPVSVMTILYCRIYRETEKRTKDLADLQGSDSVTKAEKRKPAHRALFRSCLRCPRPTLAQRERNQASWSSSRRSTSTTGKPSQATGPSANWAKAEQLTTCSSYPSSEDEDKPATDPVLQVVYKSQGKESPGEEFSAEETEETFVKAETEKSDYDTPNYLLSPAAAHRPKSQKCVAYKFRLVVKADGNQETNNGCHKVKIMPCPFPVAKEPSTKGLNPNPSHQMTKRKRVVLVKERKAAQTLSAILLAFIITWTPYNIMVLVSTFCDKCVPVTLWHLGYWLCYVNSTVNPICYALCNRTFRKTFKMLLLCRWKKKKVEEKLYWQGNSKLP
T12 sequence (P31645 whole entry): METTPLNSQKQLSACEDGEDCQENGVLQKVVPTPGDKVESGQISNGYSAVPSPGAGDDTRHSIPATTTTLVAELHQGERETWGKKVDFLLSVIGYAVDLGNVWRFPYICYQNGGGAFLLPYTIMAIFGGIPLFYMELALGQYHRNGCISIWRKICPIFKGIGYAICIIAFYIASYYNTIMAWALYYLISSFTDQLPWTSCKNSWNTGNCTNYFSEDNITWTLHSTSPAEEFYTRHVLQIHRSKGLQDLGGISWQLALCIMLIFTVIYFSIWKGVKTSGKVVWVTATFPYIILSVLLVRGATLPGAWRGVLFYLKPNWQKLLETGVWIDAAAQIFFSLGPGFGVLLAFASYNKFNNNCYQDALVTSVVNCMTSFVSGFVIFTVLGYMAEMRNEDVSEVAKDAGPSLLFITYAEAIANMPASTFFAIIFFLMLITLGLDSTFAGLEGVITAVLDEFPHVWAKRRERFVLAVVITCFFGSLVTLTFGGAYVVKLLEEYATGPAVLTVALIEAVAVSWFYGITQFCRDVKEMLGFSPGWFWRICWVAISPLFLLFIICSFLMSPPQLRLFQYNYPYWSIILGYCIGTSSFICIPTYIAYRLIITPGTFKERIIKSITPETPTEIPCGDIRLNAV
T9 sequence (Q01959 whole entry): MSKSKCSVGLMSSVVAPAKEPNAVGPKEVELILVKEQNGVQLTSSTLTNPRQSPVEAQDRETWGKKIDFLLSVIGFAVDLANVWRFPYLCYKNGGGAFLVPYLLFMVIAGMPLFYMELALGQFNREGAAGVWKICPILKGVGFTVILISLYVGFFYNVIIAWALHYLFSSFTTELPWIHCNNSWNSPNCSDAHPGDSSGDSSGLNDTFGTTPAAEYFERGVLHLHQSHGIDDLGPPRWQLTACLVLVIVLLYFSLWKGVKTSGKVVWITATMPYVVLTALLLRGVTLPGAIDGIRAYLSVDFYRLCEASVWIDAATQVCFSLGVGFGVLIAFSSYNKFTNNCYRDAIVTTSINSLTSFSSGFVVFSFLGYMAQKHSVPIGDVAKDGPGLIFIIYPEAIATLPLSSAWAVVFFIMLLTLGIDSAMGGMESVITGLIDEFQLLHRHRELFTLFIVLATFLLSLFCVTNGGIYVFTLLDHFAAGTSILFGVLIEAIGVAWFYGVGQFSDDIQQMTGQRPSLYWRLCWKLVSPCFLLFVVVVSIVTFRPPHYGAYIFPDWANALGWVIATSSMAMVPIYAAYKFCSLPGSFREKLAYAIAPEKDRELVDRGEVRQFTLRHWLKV

`Cc1ncsc1-c1ccc([C@H](C)NC(=O)[C@@H]2C[C@@H](O)CN2C(=O)[C@@H](NC(=O)CNC(=O)c2ccc(F)c(-c3ccc(N4C[C@@H](C)N(C)[C@@H](C)C4)c(NC(=O)c4c[nH]c(=O)cc4C(F)(F)F)c3)c2)C(C)(C)C)cc1` [MS67]: the inhibition at 1 µM stood at 14.3% in [1]; 3.09% in [2]; 36.6% in assay [3]; 24.4% in assay [4]; 27.6% in [5]; 1.35% in [6]. The inhibition at 1 µM in assay [7] is -23%; in [8], 22.9%; in assay [9], 40.8%; in [10], 19.7%; in assay [11] it was 2.36%; in assay [12] it was 8.01%. Besides, the inhibition at 1 µM in [13] was determined as 48.8%. For the same compound, the figures for the remaining activity at 10 µM in [14] (read-out: Enzyme % Activity (relative to DMSO controls) / MS67 / 10 / Data 1:) and in assay [14] (read-out: Enzyme % Activity (relative to DMSO controls) / MS67 / 10 / Data 2:) were 93.6% and 92.2%, respectively.

A word on the inhibition: it is the drop in the measured response relative to a control, in per cent.
